Measured values taken from paper PMC2704374, “A Multidrug ABC Transporter with a Taste for Salt” (PLoS ONE, 2009).

Target: T1, LmrCD (Lactococcus cremoris, UniProt A2RI37+A2RI38)
T1 construct: gene lmrC
Experiment: malachite green ATPase assay
Assay type: biochemical
Conditions: 2 mM Mg-ATP; 0.05% DDM

T1 sequence (A2RI38 entry or part of it): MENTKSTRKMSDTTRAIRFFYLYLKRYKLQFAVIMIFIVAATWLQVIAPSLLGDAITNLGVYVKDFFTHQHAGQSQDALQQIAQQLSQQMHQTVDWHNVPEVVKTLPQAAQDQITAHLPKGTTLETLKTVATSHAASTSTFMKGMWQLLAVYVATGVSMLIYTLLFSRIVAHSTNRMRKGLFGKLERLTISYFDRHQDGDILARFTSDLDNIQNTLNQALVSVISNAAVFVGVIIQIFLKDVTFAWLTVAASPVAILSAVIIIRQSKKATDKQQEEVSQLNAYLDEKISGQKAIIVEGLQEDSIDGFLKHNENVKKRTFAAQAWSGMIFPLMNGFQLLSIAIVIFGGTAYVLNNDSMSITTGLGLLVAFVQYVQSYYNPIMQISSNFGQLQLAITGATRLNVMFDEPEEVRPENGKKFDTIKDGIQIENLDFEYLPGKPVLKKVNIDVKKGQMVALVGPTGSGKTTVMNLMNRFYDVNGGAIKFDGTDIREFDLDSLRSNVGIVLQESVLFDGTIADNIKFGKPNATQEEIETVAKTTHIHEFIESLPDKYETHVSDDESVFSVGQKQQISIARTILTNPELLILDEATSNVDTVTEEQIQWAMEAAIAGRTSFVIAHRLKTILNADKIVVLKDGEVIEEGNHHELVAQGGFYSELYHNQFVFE
T1 sequence (A2RI37 entry or part of it): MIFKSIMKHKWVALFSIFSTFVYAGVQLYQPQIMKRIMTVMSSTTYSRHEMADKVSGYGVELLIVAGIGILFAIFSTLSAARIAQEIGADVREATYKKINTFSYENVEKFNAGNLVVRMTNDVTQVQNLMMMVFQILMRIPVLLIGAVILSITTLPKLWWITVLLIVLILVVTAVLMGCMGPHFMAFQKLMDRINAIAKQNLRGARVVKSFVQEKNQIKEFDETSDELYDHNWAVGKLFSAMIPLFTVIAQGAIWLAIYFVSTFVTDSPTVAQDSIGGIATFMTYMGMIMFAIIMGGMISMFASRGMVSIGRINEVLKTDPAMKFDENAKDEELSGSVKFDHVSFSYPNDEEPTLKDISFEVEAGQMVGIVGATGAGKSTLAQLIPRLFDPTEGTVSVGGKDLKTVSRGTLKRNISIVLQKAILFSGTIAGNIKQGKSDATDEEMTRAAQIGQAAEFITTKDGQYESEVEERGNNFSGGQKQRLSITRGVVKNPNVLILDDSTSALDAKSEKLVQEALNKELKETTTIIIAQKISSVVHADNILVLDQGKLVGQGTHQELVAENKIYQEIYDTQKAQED

SMILES: Nc1ncnc2c1ncn2[C@@H]1O[C@H](COP(=O)(O)OP(=O)(O)OP(=O)(O)O)[C@@H](O)[C@H]1O [ATP]
- malachite green ATPase assay: the ATPase activity of the purified multidrug ABC transporter LmrCD from L. lactis
